Among the data in patent publication US20230051589A1, “COMPOUNDS AND COMPOSITIONS FOR TREATING CONDITIONS ASSOCIATED WITH NLRP ACTIVITY” (Novartis AG, priority 2018, published 2023) are IC50 values, retold here.

pIC50: −log10 of the molar value.

The experiment deals with IL-1β production in PMA-differentiated THP-1 cells. Kind of experiment: IL-1β production in PMA-differentiated THP-1 cells stimulated with gramicidin (hTHP-1 assay, 2% fetal bovine serum; Procedures 1-3). It is filed as cell-based, human. Particulars: Table B1; hTHP-1 assay containing 2% fetal bovine serum, gramicidin stimulation, IL-1β readout; read-out: hTHP-1 IC50 (average). The procedure:
The following protocol is suitable for testing the activity of the compounds disclosed herein.
Procedure 1: IL-1β Production in PMA-Differentiated THP-1 Cells Stimulated with Gramicidin.
THP-1 cells were purchased from the American Type Culture Collection and sub-cultured according to instructions from the supplier. Cells were cultured in complete RPMI 1640 (containing 10% heat inactivated FBS, penicillin (100 units/ml) and streptomycin (100 μg/ml)), and maintained in log phase prior to experimental setup. Prior to the experiment, compounds were dissolved in dimethyl sulfoxide (DMSO) to generate a 30 mM stock. The compound stock was first pre-diluted in DMSO to 3, 0.34, 0.042 and 0.0083 mM intermediate concentrations and subsequently spotted using Echo550 liquid handler into an empty 384-well assay plate to achieve desired final concentration (e.g. 100, 33, 11, 3.7, 1.2, 0.41, 0.14, 0.046, 0.015, 0.0051, 0.0017 μM). DMSO was backfilled in the plate to achieve a final DMSO assay concentration of 0.37%. The plate was then sealed and stored at room temperature until required.
THP-1 cells were treated with PMA (Phorbol 12-myristate 13-acetate) (20 ng/ml) for 16-18 hours. On the day of the experiment the media was removed and adherent cells were detached with trypsin for 5 minutes. Cells were then harvested, washed with complete RPMI 1640, spun down, and resuspended in RPMI 1640 (containing 2% heat inactivated FBS, penicillin (100 units/ml) and streptomycin (100 μg/ml). The cells were plated in the 384-well assay plate containing the spotted compounds at a density of 50,000 cells/well (final assay volume 50 μl). Cells were incubated with compounds for 1 hour and then stimulated with gramicidin (5 μM) (Enzo) for 2 hours. Plates were then centrifuged at 340 g for 5 min. Cell free supernatant (40 μL) was collected using a 96-channel PlateMaster (Gilson) and the production of IL-1β was evaluated by HTRF (cisbio). The plates were incubated for 18 h at 4° C. and read using the preset HTRF program (donor emission at 620 nm, acceptor emission at 668 nm) of the SpectraMax i3x spectrophotometer (Molecular Devices, software SoftMax 6). A vehicle only control and a dose titration of CRID3 (100-0.0017 μM) were run concurrently with each experiment.
Procedure 2: IL-1β Production in PMA-Differentiated THP-1 Cells Stimulated with Gramicidin.
THP-1 cells were purchased from the American Type Culture Collection and sub-cultured according to instructions from the supplier. Prior to experiments, cells were cultured in complete RPMI 1640 (containing 10% heat inactivated FBS, penicillin (100 units/ml) and streptomycin (100 μg/ml)), and maintained in log phase prior to experimental setup. Prior to the experiment THP-1 were treated with PMA (Phorbol 12-myristate 13-acetate) (20 ng/ml) for 16-18 hours. Compounds were dissolved in dimethyl sulfoxide (DMSO) to generate a 30 mM stock. On the day of the experiment the media was removed and adherent cells were detached with trypsin for 5 minutes. Cells were then harvested, washed with complete RPMI 1640, spun down, resuspended in RPMI 1640 (containing 2% heat inactivated FBS, penicillin (100 units/ml) and streptomycin (100 μg/ml) . The cells were plated in a 384-well plate at a density of 50,000 cells/well (final assay volume 50 μl). Compounds were first dissolved in assay medium to obtain a 5× top concentration of 500 μM. 10 step dilutions (1:3) were then undertaken in assay medium containing 1.67% DMSO. 5× compound solutions were added to the culture medium to achieve desired final concentration (e.g. 100, 33, 11, 3.7, 1.2, 0.41, 0.14, 0.046, 0.015, 0.0051, 0.0017 μM). Final DMSO concentration was at 0.37%. Cells were incubated with compounds for 1 hour and then stimulated with gramicidin (5 μM) (Enzo) for 2 hours. Plates were then centrifuged at 340 g for 5 min. Cell free supernatant (40 μL) was collected using a 96-channel PlateMaster (Gilson) and the production of IL-1β was evaluated by HTRF (cisbio). […]

Regarding `CC(C)(O)c1ncc(S(N)(=O)=NC(=O)Nc2c3c(cc4c2CCC4O)CCC3)s1` (single isomer, unassigned) [Example 338, (R, S) or (R, R)-N′-((1-hydroxy-1,2,3,5,6,7-hexa-hydro-s-indacen-4-yl)-carbamoyl)-2-(2-hydroxy-propan-2-yl)thiazole-5-sulfonimidamide], the pIC50 was 5.30 to 6.00.
In the case of `CC(C)(O)c1ncc(S(N)(=O)=NC(=O)Nc2c3c(cc4c2OCC4)CCC3)s1` (single isomer, unassigned) [Example 343, (R) or (S)-2-(2-hydroxy-propan-2-yl)-N′-((3,5,6,7-tetrahydro-2H-indeno[5,6-b]furan-8-yl)carbamoyl)-thiazole-5-sulfonimidamide], the negative-log IC50 (pIC50) was 6.70 to 7.40.
For the molecule `CC(C)(O)c1cnc(S(N)(=O)=NC(=O)Nc2c3c(cc4c2OCC4)CCC3)s1` (single isomer, unassigned) [Example 350, (R) or (S)-5-(2-hydroxy-propan-2-yl)-N′-((3,5,6,7-tetrahydro-2H-indeno-[5,6-b]furan-8-yl)carbam-oyl)thiazole-2-sulfonimid-amide], the pIC50 was 6.70 to 7.40.
Turning to `CC(C)(O)c1csc(S(N)(=O)=NC(=O)Nc2c3c(cc4c2OCC4)CCC3)n1` (single isomer, unassigned) [Example 354, (R) or (S)-4-(2-hydroxy-propan-2-yl)-N′-((3,5,6,7-tetrahydro-2H-indeno-[5,6-b]furan-8-yl)carbam-oyl)thiazole-2-sulfonimid-amide], the negative-log IC50 (pIC50) is 7.40 to 8.10.
As for `CN(C)S(=O)(=NC(=O)Nc1c2c(cc3c1CCC3)CCC2)c1cc(C(C)(C)O)cs1` (single isomer, unassigned) [Example 357, (R) or (S)-N′-((1,2,3,5,6,7-hexahydro-s-indacen-4-yl)-carbamoyl)-4-(2-hydroxy-propan-2-yl)-N,N-dimeth-ylthiophene-2-sulfonimid-amide], the pIC50 is 4.52 to 5.30.
Take `CN(C)C(C)(C)c1ccc(S(N)(=O)=NC(=O)Nc2c3c(cc4c2CCC4)CCC3)cc1` (single isomer, unassigned) [Example 361, (R) or (S)-4-(2-(dimethyl-amino)propan-2-yl)-N′-((1,2,3,5,6,7-hexahydro-s-indacen-4-yl)carbamoyl)-benzenesulfonimidamide]: the pIC50 is 6.70 to 7.40.
As for `CC(C)(O)c1ncc(S(N)(=O)=NC(=O)Nc2c3c(cc4c2C(=O)CC4)CCC3)s1` (single isomer, unassigned) [Example 364, (R) or (S)-2-(2-Hydroxy-propan-2-yl)-N′-((3-oxo-1,2,3,5,6,7-hexahydro-s-indacen-4-yl)carbamoyl)-thiazole-5-sulfonimidamide], the pIC50 was 6.70 to 7.40.
Regarding `CC(=O)N(C)Cc1ccc(S(N)(=O)=NC(=O)Nc2c3c(cc4c2CCC4)CCC3)cc1` (single isomer, unassigned) [Example 366, (R) or (S)-N-(4-N′-((1,2,3,5,6,7-hexahydro-s-indacen-4-yl)carbamoyl)-sulfamidimidoyl)benzyl)-N-methylacetamide], the pIC50 was 5.30 to 6.00.
Consider `CC(c1ccc(S(N)(=O)=NC(=O)Nc2c3c(cc4c2CCC4)CCC3)cc1)N(C)C` (single isomer, unassigned) [Example 372, (R) or (S)-4-(1-(dimethyl-amino)ethyl)-N′-((1,2,3,5,6,7-hexahydro-s-indacen-4-yl)carbamoyl)-benzenesulfonimidamide], for which the pIC50 is 6.70 to 7.40.
Turning to `CC(c1ccc(S(N)(=O)=NC(=O)Nc2c3c(cc4c2CCC4)CCC3)cc1)N(C)C` (single isomer, unassigned) [Example 377, (R, R) or (R, S) or (S, S) or (S, R)-4-(1-(dimethyl-amino)ethyl)-N′-((1,2,3,5,6,7-hexahydro-s-indacen-4-yl)carbamoyl)-benzenesulfonimidamide], the pIC50 was 6.70 to 7.40.
As to `COC1CN(Cc2ccc(S(N)(=O)=NC(=O)Nc3c4c(cc5c3CCC5)CCC4)cc2)C1` (single isomer, unassigned) [Example 379, (R) or (S)-N′-((1,2,3,5,6,7-hexahydro-s-indacen-4-yl)carbamoyl)-4-((3-methoxyazelidin-1-yl)-methyl)benzenesulfonimid-amide], the pIC50 was 5.30 to 6.00.
Consider `CN(C)Cc1cc(F)c(S(N)(=O)=NC(=O)Nc2c3c(cc4c2CCC4)CCC3)s1` (single isomer, unassigned) [Example 381, (R) or (S)-5-((dimethyl-amino)methyl)-3-fluoro-N′-((1,2,3,5,6,7-hexa-hydro-s-indacen-4-yl)-carbamoyl)thiophene-2-sulfonimidamide], for which the pIC50 was 7.40 to 8.10.
To `CC(C)(O)c1cc(F)c(S(N)(=O)=NC(=O)Nc2c3c(cc4c2CCC4)CCC3)s1` (single isomer, unassigned) [Example 385, (R) or (S)-3-fluoro-N′-((1,2,3,5,6,7-hexahydro-s-indacen-4-yl)carbamoyl)-5-(2-hydroxypropan-2-yl)thiophene-2-sulfonimid-amide] belongs 7.40 to 8.10.
On to `COC(C)(C)c1ncc(S(N)(=O)=NC(=O)Nc2c3c(cc4c2CCC4)CCC3)s1` (single isomer, unassigned) [Example 388, (R) or (S)-N′-((1,2,3,5,6,7-hexahydro-s-indacen-4-yl)carbamoyl)-2-(2-meth-oxypropan-2-yl)thiazole-5-sulfonimidamide], for which the pIC50 is 6.70 to 7.40.
To `COCCN(C)Cc1ccc(S(N)(=O)=NC(=O)Nc2c3c(cc4c2CCC4)CCC3)cc1` (single isomer, unassigned) [Example 390, (R) or (S)-N′-((1,2,3,5,6,7-hexahydro-s-indacen-4-yl)carbamoyl)-4-(((2-meth-oxyethyl)(methyl)amino)-methyl)benzenesulfonimid-amide] belongs 5.30 to 6.00; to `CC(C)(O)c1ncc(S(N)(=O)=NC(=O)Nc2c3c(cc4c2C(O)CC4)CCC3)s1` (single isomer, unassigned) [Example 391, (R, R) or (R, S) or (S, S) or (S, R)-N′-((3-hydroxy-1,2,3,5,6,7-hexahydro-s-indacen-4-yl)carbamoyl)-2-(2-hydroxypropan-2-yl)thiazole-5-sulfonimid-amide], 6.00 to 6.70.
To `CC(C)(O)c1ncc(S(N)(=O)=NC(=O)Nc2c3c(cc4c2C(O)CC4)CCC3)s1` (single isomer, unassigned) [Example 392, (R, S) or (R, R) or (S, R) or (S, S)-N′-((3-hydroxy-1,2,3,5,6,7-hexahydroxy-indacen-4-yl)carbamoyl)-2-(2-hydroxypropan-2-yl)thiazole-5-sulfonimid-amide] belongs 6.00 to 6.70.
With `CN1CCc2cc(S(N)(=O)=NC(=O)Nc3c4c(cc5c3CCC5)CCC4)ccc2C1` (single isomer, unassigned) [Example 395, (R) or (S)-N′-((1,2,3,5,6,7-hexahydro-s-indacen-4-yl)carbamoyl)-2-methyl-1,2,3,4-tetrahydroisoquin-oline-6-sulfonimidamide], the pIC50 was 5.30 to 6.00.
Regarding `COC(C)(C)c1ccc(S(N)(=O)=NC(=O)Nc2c3c(cc4c2CCC4)CCC3)cc1` (single isomer, unassigned) [Example 399, (R) or (S)-N′-((1,2,3,5,6,7-hexahydro-s-indacen-4-yl)carbamoyl)-4-(2-meth-oxypropan-2-yl)benzene-sulfonimidamide], the pIC50 is 6.00 to 6.70.

For orientation: pIC50 means the IC50 on a negative log10 scale, so that one unit is a factor of ten.
